Tests used:
Format in all cases: physicochemical
[1] = pH time course following dissolution in water; settings: for pH following dissolution in water: room temperature, ambient air
Description: (§1) 10 ml sterile water was added to the reference formulation lyophile of 5,10-MTHF and to each of the test formulation lyophiles to give a final concentration of 10 mg/ml (this dissolution volume and concentration corresponds to the most current recommended clinical use guidelines for 5,10-MTHF for cancer therapy). The nonformulated 5,10-MTHF was dissolved in water to a concentration of 6 mg/ml. The lower concentration of nonformulated 5,10-MTHF was due to the fact that nonformulated 5,10-MTHF has a maximum solubility in water of approximately 6 mg/ml (when dissolved in a trisodium citrate, 5,10-MTHF has a much higher (>10 mg/ml) solubility). Samples were stored at room temperature under ambient air conditions to mimic as close as possible expected real-world use.
The pH of 5,10-MTHF dissolved in water was measured at multiple time points using a digital pH meter.

[2] = 5,10-MTHF stability following dissolution in water by HPLC; settings: for % Normalized Purity of 5,10-MTHF: room temperature
Description: as §1
The stability of 5,10-MTHF dissolved in water was measured by HPLC. Data is reported as the normalized purity of 5,10-MTHF based on the starting purity according to the following formula: % Normalized Purity=(% 5,10-MTHF Time X)÷(% 5,10-MTHF Time 0)×(100)
5,10-MTHF stability kinetics were estimated by linear regression analysis (GraphPad Prism software).

[3] = Solubility of 5,10-MTHF in water
Description: as §1

- pH following dissolution in water ([1]; 0 hours): 6.88
- pH following dissolution in water ([1]; 0.25 hours): 6.89
- pH following dissolution in water ([1]; 0.5 hours): 6.87
- pH following dissolution in water ([1]; 0.75 hours): 6.85
- pH following dissolution in water ([1]; 1 hour): 6.83
- pH following dissolution in water ([1]; 2 hours): 6.77
- pH following dissolution in water ([1]; 4 hours): 6.80
- pH following dissolution in water ([1]; 6 hours): 6.83
- pH following dissolution in water ([1]; 8 hours): 6.81
- pH following dissolution in water ([1]; 24 hours): 6.79
- pH following dissolution in water (approximate, text summary) ([1]; starting and steady state pH over 24 hours): ~6.9
- % Normalized Purity of 5,10-MTHF ([2]; 0 hours after dissolution in water): 100.0%
- % Normalized Purity of 5,10-MTHF ([2]; 0.5 hours after dissolution in water): 94.9%
- % Normalized Purity of 5,10-MTHF ([2]; 1 hour after dissolution in water): 92.4%
- % Normalized Purity of 5,10-MTHF ([2]; 2 hours after dissolution in water): 90.3%
- % Normalized Purity of 5,10-MTHF ([2]; 4 hours after dissolution in water): 85.9%
- % Normalized Purity of 5,10-MTHF ([2]; 8 hours after dissolution in water): 77.8%
- % Normalized Purity of 5,10-MTHF ([2]; 12 hours after dissolution in water): 69.6%
- % Normalized Purity of 5,10-MTHF ([2]; 18 hours after dissolution in water): 55.1%
- % Normalized Purity of 5,10-MTHF ([2]; 24 hours after dissolution in water): 44.9%
- Linear Regression Degradation Rate Following Dissolution in Water ([2]; slope of best-fit line, 0-24 hours): −2.2 % Purity/Hours
- solubility when dissolved in trisodium citrate ([3]; dissolved in a trisodium citrate): > 10 mg/mL
- maximum solubility in water ([3]; nonformulated, water): approximately 6 mg/ml
SMILES: Nc1nc2c(c(=O)[nH]1)N1CN(c3ccc(C(=O)N[C@@H](CCC(=O)O)C(=O)O)cc3)CC1CN2 (some centres unmarked) [Nonformulated, 5,10-methylenetetrahydrofolate]
